Drawing on US9604996B2 (Bayer Pharma Aktiengesellschaft, priority 2013, dated 2017), this text covers IC50 for 20 molecules.

For this test, the target named is T1, human adenosine A2b receptor (Homo sapiens, UniProt P29275).
T1 construct: expressed in transfected cells; host or cells: CHO-K1 (Chinese Hamster Ovary) with CRE-luciferase reporter
T1 sequence (P29275 1-332): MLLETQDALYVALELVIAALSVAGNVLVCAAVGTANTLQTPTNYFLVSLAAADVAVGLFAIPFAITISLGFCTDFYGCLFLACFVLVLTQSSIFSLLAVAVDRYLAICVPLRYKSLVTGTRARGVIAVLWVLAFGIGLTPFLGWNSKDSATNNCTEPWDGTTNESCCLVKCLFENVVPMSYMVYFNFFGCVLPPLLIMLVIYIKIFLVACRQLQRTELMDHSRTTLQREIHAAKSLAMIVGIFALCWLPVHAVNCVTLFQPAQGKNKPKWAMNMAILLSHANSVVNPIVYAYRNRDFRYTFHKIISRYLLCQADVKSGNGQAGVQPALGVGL
Kind of test: Cellular reporter gene (CRE-luciferase) A2b receptor antagonist assay in recombinant CHO-K1 cells stimulated with NECA. Type of test: cell-based. The conditions noted are these: recombinant CHO-K1 cell line, co-incubation with EC50 concentration of NECA, 3 hours, in some cases means, rounded to two significant digits. Put shortly: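 CHO-K1 cells expressing human A2b receptor with a CRE-driven firefly luciferase reporter, co-incubated with test compound and NECA at its same-day EC50 concentration. Luminescence read 3 hours after NECA addition.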
For orientation: A reporter such as luciferase makes a cellular process visible.

The IC50 is the concentration at which inhibition is half-maximal. On to `Cc1c(C(=O)N2CCC(O)CC2)sc2c1c(=O)n(CCn1ccnc1)c(=O)n2CCC(F)(F)F` [Example 55, 6-[(4-Hydroxypiperidin-1-yl)carbonyl]-3-[2-(1H-imidazol-1-yl)ethyl]-5-methyl-1-(3,3,3-trifluoropropyl)thieno[2,3-d]pyrimidine-2,4(1H,3H)-dione], for which the IC50 was found to be 0.25 µM.

In the case of `CCn1c(=O)c2c(C)c(C(=O)N3CCC(O)CC3)sc2n(CCOC(F)(F)F)c1=O` [Example 56, 3-Ethyl-6-[(4-hydroxypiperidin-1-yl)carbonyl]-5-methyl-1-[2-(trifluoromethoxy)ethyl]thieno[2,3-d]pyrimidine-2,4(1H,3H)-dione], the IC50 was 0.019 µM.

In the case of `CCn1c(=O)c2c(C)c(C(=O)N3CCC(O)CC3)sc2n(CCSC(F)(F)F)c1=O` [Example 57, 3-Ethyl-6-[(4-hydroxypiperidin-1-yl)carbonyl]-5-methyl-1-{2-[(trifluoromethyl)sulphanyl]ethyl}thieno[2,3-d]pyrimidine-2,4(1H,3H)-dione], the IC50 was 0.13 µM.

For the molecule `C=C(Cn1c(=O)n(CC)c(=O)c2c(C)c(C(=O)N3CCC(O)CC3)sc21)C(F)(F)F` [Example 58, 3-Ethyl-6-[(4-hydroxypiperidin-1-yl)carbonyl]-5-methyl-1-[2-(trifluoromethyl)prop-2-en-1-yl]thieno[2,3-d]pyrimidine-2,4(1H,3H)-dione], the IC50 is 0.38 µM.

For the molecule `CCCn1c(=O)c2c(C)c(C(=O)N3CCC(O)CC3)sc2n(CCOC(F)(F)F)c1=O` [Example 60, 6-[(4-Hydroxypiperidin-1-yl)carbonyl]-5-methyl-3-propyl-1-[2-(trifluoromethoxy)ethyl]thieno[2,3-d]pyrimidine-2,4(1H,3H)-dione], the IC50 is 0.012 µM.

On to `C#CCCn1c(=O)c2c(C)c(C(=O)N3CCC(O)CC3)sc2n(CCC(F)(F)F)c1=O` [Example 61, 3-(But-3-yn-1-yl)-6-[(4-hydroxypiperidin-1-yl)carbonyl]-5-methyl-1-(3,3,3-trifluoropropyl)thieno[2,3-d]pyrimidine-2,4(1H,3H)-dione], for which the IC50 came to 0.017 µM.

In the case of `COCCn1c(=O)c2c(C)c(C(=O)N3CCC(O)CC3)sc2n(CCC(F)(F)F)c1=O` [Example 62, 6-[(4-Hydroxypiperidin-1-yl)carbonyl]-3-(2-methoxyethyl)-5-methyl-1-(3,3,3-trifluoropropyl)thieno[2,3-d]pyrimidine-2,4(1H,3H)-dione], the IC50 came out at 0.12 µM.

On to `Cc1c(C(=O)N2CCC(O)CC2)sc2c1c(=O)n(CCC1CC1)c(=O)n2CCC(F)(F)F` [Example 63, 3-(2-Cyclopropylethyl)-6-[(4-hydroxypiperidin-1-yl)carbonyl]-5-methyl-1-(3,3,3-trifluoropropyl)thieno[2,3-d]pyrimidine-2,4(1H,3H)-dione], for which the IC50 worked out at 0.21 µM.

Take `Cc1c(C(=O)N2CCC(O)CC2)sc2c1c(=O)n(CC(C)C)c(=O)n2CCC(F)(F)F` [Example 64, 6-[(4-Hydroxypiperidin-1-yl)carbonyl]-3-isobutyl-5-methyl-1-(3,3,3-trifluoropropyl)thieno[2,3-d]pyrimidine-2,4(1H,3H)-dione]: the IC50 was determined as 0.045 µM.

Take `Cc1c(C(=O)N2CCC(C)(O)CC2)sc2c1c(=O)n(CCc1ccccc1)c(=O)n2CCC(F)(F)F` [Example 67, 6-[(4-Hydroxy-4-methylpiperidin-1-yl)carbonyl]-5-methyl-3-(2-phenylethyl)-1-(3,3,3-trifluoropropyl)thieno[2,3-d]pyrimidine-2,4(1H,3H)-dione]: the IC50 worked out at 0.013 µM.

Turning to `Cc1c(C(=O)N2CCC(O)(CO)CC2)sc2c1c(=O)n(CCc1ccccc1)c(=O)n2CCC(F)(F)F` [Example 68, 6-{[4-Hydroxy-4-(hydroxymethyl)piperidin-1-yl]carbonyl}-5-methyl-3-(2-phenylethyl)-1-(3,3,3-trifluoropropyl)thieno[2,3-d]pyrimidine-2,4(1H,3H)-dione], the IC50 stood at 0.02 µM.

On to `Cc1c(C(=O)N2CCC(O)(C(F)(F)F)CC2)sc2c1c(=O)n(CCc1ccccc1)c(=O)n2CCC(F)(F)F` [Example 69, 6-{[4-Hydroxy-4-(trifluoromethyl)piperidin-1-yl]carbonyl}-5-methyl-3-(2-phenylethyl)-1-(3,3,3-trifluoropropyl)thieno[2,3-d]pyrimidine-2,4(1H,3H)-dione], for which the IC50 is 0.06 µM.

Take `Cc1c(C(=O)N2CCC(O)(CO)CC2)sc2c1c(=O)n(CC(F)(F)c1ccccc1)c(=O)n2CCC(F)(F)F` [Example 70, 3-(2,2-Difluoro-2-phenylethyl)-6-{[4-hydroxy-4-(hydroxymethyl)piperidin-1-yl]carbonyl}-5-methyl-1-(3,3,3-trifluoropropyl)thieno [2,3-d]pyrimidine-2,4(1H,3H)-dione]: the IC50 amounted to 0.028 µM.

As for `COCCn1c(=O)n(CC(F)(F)c2ccccc2)c(=O)c2c(C)c(C(=O)N3CCC(O)(CO)CC3)sc21` [Example 71, 3-(2,2-Difluoro-2-phenylethyl)-6-{[4-hydroxy-4-(hydroxymethyl)piperidin-1-yl]carbonyl}-1-(2-methoxyethyl)-5-methylthieno[2,3-d]pyrimidine-2,4(1H,3H)-dione], the IC50 is 0.42 µM.

Regarding `CCn1c(=O)c2c(C)c(C(=O)N3CC4CCCC(C3)C4O)sc2n(CCC(F)(F)F)c1=O` (stereo not drawn) [Example 72, 3-Ethyl-6-[(9-hydroxy-3-azabicyclo[3.3.1]non-3-yl)carbonyl]-5-methyl-1-(3,3,3-trifluoropropyl)thieno[2,3-d]pyrimidine-2,4(1H,3H)-dione (α-epimer)], the IC50 is 0.017 µM.

In the case of `CCn1c(=O)c2c(C)c(C(=O)N3CCC(O)C(C)C3)sc2n(CCC(F)(F)F)c1=O` (stereo not drawn) [Example 73, 3-Ethyl-6-[(4-hydroxy-3-methylpiperidin-1-yl)carbonyl]-5-methyl-1-(3,3,3-trifluoropropyl)thieno [2,3-d]pyrimidine-2,4(1H,3H)-dione (enantiomer pair 1)], the IC50 is 0.053 µM.

Regarding `CCn1c(=O)c2c(C)c(C(=O)N3CCC(O)(CO)CC3)sc2n(CCOC(F)(F)F)c1=O` [Example 75, 3-Ethyl-6-{[4-hydroxy-4-(hydroxymethyl)piperidin-1-yl]carbonyl}-5-methyl-1-[2-(trifluoromethoxy)ethyl]thieno[2,3-d]pyrimidine-2,4(1H,3H)-dione], the IC50 turned out to be 0.033 µM.

`CCCn1c(=O)c2c(C)c(C(=O)N3CCC(C)(O)CC3)sc2n(CCC(F)(F)F)c1=O` [Example 76, 6-[(4-Hydroxy-4-methylpiperidin-1-yl)carbonyl]-5-methyl-3-propyl-1-(3,3,3-trifluoropropyl)thieno[2,3-d]pyrimidine-2,4(1H,3H)-dione]: the IC50 is 0.027 µM.

Regarding `CCCn1c(=O)c2c(C)c(C(=O)N3CCC(O)(CO)CC3)sc2n(CCC(F)(F)F)c1=O` [Example 77, 6-{[4-Hydroxy-4-(hydroxymethyl)piperidin-1-yl]carbonyl}-5-methyl-3-propyl-1-(3,3,3-trifluoropropyl)thieno[2,3-d]pyrimidine-2,4(1H,3H)-dione], the IC50 amounted to 0.075 µM.

As for `CCCn1c(=O)c2c(C)c(C(=O)N3CCC(O)(CO)CC3)sc2n(CCOC)c1=O` [Example 78, 6-{[4-Hydroxy-4-(hydroxymethyl)piperidin-1-yl]carbonyl}-1-(2-methoxyethyl)-5-methyl-3-propylthieno[2,3-d]pyrimidine-2,4(1H,3H)-dione], the IC50 worked out at 0.35 µM.
